Patent US8569344B2, “N-piperidinyl acetamide derivatives as calcium channel blockers” (Zalicus Pharmaceuticals Ltd., priority 2008, dated 2013)
pIC50: −log10 of the molar value.

What follows are compounds tested against T1, human α1G T-type channels (Homo sapiens, UniProt O43497) (assay: T-type calcium channel block, whole cell patch clamp in HEK cells (α1G)). Conditions: HEK cells, patch clamp, mainly non-inactivated protocol; values above 10 μM shown as 10 μM, below 0.30 μM shown as 0.30 μM; read-out: T-type Calcium Channel Block α1G IC50.
T1 construct: expressed in transfected cells; host or cells: HEK 293
Type: cell-based
Experimental: T-type calcium channel blocking activity was assayed in human embryonic kidney cells, HEK 293, stably transfected with the T-type calcium channel subunits. Briefly, cells were cultured in Dulbecco's modified eagle medium (DMEM) supplemented with 10% fetal bovine serum, 200 U/ml penicillin and 0.2 mg/ml streptomycin at 37° C. with 5% CO2. At 85% confluency cells were split with 0.25% trypsin/1 mM EDTA and plated at 10% confluency on glass coverslips. […] Fresh DMEM was supplied and the cells transferred to 28° C./5% CO2. Cells were incubated for 1 to 2 days prior to whole cell recording.
Standard patch-clamp techniques were employed to identify blockers of T-type currents. Briefly, previously described HEK cell lines stably expressing human α1G, α1H and α1I T-type channels were used for all the recordings (passage #: 4-20, 37° C., 5% CO2). Whole cell patch clamp experiments were performed using an Axopatch 200B amplifier (Axon Instruments, Burlingame, Calif.) linked to a personal computer equipped with pCLAMP software. Data were analyzed using Clampfit (Axon Instruments) and SigmaPlot 4.0 (Jandel Scientific). To obtain T-type currents, plastic dishes containing semi-confluent cells were positioned on the stage of a ZEISS AXIOVERT S100 microscope after replacing the culture medium with external solution (see below). Whole-cell patches were obtained using pipettes (borosilicate glass with filament, O.D.: 1.5 mm, I.D.: 0.86 mm, 10 cm length), fabricated on a SUTTER P-97 puller with resistance values of ˜5 MΩ (see below for internal solution).
In the non-inactivating protocol, the holding potential is set at −110 mV and with a pre-pulse at −100 mV for 1 second prior to the test pulse at −40 mV for 50 ms.
Test compounds were dissolved in external solution, 0.1-0.01% DMSO. After ˜10 min rest, they were applied by gravity close to the cell using a WPI microfil tubing. The “non-inactivated” pre-pulse was used to examine the resting block of a compound. The “inactivated” protocol was employed to study voltage-dependent block. […] Values are shown in μM and values above 10 μM are simply represented as 10 μM.

T1 sequence (O43497 whole entry): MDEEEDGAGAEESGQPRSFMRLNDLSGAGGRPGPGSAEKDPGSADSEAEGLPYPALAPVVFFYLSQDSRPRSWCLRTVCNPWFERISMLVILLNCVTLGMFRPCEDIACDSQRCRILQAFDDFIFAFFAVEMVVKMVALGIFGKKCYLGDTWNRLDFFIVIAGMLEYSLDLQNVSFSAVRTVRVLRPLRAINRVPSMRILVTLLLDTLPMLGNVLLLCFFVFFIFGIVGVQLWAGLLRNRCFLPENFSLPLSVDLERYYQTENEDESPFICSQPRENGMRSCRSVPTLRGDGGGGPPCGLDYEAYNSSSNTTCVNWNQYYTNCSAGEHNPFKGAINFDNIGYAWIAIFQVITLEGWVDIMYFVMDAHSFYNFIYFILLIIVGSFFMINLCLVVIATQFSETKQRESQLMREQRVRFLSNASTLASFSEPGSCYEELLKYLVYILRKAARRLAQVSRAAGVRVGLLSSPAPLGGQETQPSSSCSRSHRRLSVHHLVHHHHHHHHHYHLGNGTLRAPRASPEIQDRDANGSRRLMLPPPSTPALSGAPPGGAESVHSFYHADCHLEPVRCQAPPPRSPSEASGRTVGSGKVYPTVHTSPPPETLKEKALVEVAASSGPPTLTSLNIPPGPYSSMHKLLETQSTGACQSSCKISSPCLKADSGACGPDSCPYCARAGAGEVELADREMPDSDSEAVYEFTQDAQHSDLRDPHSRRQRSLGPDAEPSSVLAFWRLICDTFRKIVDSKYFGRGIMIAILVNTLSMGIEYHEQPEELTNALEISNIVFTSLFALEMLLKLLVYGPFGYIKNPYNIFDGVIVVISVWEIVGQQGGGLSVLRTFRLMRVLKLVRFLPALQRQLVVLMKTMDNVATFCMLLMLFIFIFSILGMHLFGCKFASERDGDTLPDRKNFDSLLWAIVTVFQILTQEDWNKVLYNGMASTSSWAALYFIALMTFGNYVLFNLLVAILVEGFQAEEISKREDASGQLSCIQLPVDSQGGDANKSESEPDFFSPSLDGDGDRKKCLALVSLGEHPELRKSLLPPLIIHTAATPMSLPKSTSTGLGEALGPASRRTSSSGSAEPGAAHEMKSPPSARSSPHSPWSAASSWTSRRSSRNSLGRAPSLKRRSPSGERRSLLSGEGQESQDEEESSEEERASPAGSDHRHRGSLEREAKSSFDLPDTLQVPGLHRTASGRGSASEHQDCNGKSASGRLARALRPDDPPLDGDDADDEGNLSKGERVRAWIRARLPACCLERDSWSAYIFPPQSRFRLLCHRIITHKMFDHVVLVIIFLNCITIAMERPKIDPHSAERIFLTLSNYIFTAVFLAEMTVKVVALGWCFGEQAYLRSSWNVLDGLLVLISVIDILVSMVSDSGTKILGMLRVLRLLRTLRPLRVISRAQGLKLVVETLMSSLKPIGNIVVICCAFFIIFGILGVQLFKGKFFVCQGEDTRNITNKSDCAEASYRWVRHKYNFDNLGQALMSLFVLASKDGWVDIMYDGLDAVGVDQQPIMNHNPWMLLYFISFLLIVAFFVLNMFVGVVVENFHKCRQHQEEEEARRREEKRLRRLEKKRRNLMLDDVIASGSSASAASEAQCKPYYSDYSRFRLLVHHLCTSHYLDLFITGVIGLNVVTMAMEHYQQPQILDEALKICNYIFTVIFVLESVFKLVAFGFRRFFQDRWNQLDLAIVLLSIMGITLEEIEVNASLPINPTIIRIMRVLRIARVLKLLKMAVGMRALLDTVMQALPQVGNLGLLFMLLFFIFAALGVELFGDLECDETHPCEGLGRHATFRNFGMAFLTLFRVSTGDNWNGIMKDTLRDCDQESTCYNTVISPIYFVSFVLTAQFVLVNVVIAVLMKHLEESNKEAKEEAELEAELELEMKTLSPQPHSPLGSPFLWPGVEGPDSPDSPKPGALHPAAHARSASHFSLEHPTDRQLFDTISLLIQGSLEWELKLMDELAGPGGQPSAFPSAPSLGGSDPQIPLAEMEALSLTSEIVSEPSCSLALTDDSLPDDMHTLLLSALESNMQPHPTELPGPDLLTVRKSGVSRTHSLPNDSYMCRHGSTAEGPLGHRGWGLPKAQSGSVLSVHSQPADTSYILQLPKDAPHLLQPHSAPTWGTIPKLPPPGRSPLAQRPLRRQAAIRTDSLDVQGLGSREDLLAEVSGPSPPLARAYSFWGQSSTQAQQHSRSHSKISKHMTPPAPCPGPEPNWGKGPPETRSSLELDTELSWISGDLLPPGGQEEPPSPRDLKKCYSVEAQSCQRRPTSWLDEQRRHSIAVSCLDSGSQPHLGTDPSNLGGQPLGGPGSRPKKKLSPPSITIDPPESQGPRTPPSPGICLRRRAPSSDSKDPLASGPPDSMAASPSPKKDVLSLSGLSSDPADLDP

Compared with `CC(C)(C)OC(=O)NCCN1CCC(CNC(=O)c2cccc(S(C)(=O)=O)c2)CC1` [Compound 45, tert-butyl 2-(4-((3-(methylsulfonyl)benzamido)methyl)piperidin-1-yl)ethylcarbamate], `CC(C)(C)OC(=O)NCCN1CCC(CNC(=O)c2cccc(OC(C)(C)C)c2)CC1` [Compound 50, tert-butyl 2-(4-((3-tert-butoxybenzamido)methyl)piperidin-1-yl)ethylcarbamate] is higher in pIC50: under 5.00 for the first, 5.05 for the second.

`CC(C)(C)OC(=O)NCCN1CCC(CNC(=O)c2ccc(F)cc2F)CC1` [Compound 51, tert-butyl 2-(4-((2,4-difluorobenzamido)methyl)piperidin-1-yl)ethylcarbamate] and `CC(C)(C)OC(=O)NCCN1CCC(CNC(=O)c2ccccc2C(F)(F)F)CC1` [Compound 53, tert-butyl 2-(4-((2-(trifluoromethyl)benzamido)methyl)piperidin-1-yl)ethylcarbamate] cannot be ordered by pIC50: under 5.00 for the first, under 5.00 for the second.

`CC(C)(C)OC(=O)NCCN1CCC(CNC(=O)c2ccccc2OC(F)(F)F)CC1` [Compound 55, tert-butyl 2-(4-((2-(trifluoromethoxy)benzamido)methyl)piperidin-1-yl)ethylcarbamate] and `COc1ccc(C(=O)NCC2CCN(CCNS(=O)(=O)C(F)(F)F)CC2)cc1OC` [Compound 332, 3,4-dimethoxy-N-((1-(2-(trifluoromethylsulfonamido)ethyl)piperidin-4-yl)methyl)benzamide] cannot be ordered by pIC50: under 5.00 for the first, under 5.00 for the second.

Compared with `CC(C)(C)[C@H](O)C(=O)N1CCC(CNC(=O)c2cc(C(F)(F)F)cc(C(F)(F)F)c2)CC1` [Compound 76, (S)-N-((1-(2-hydroxy-3,3-dimethylbutanoyl)piperidin-4-yl)methyl)-3,5-bis(trifluoromethyl) benzamide], `CC(C)(C)C(O)C(=O)N1CCC(CNC(=O)c2cc(C(F)(F)F)cc(C(F)(F)F)c2)CC1` (centres unmarked) [Compound 91, N-((1-(2-hydroxy-3,3-dimethylbutanoyl)piperidin-4-yl)methyl)-3,5-bis(trifluoromethyl)benzamide] is lower in pIC50: 5.12 for the first, under 5.00 for the second. The first is the more potent here.

`NC1(C(=O)N2CCC(CNC(=O)c3cc(C(F)(F)F)cc(C(F)(F)F)c3)CC2)CCCC1` [Compound 85, N-((1-(1-aminocyclopentanecarbonyl)piperidin-4-yl)methyl)-3,5-bis(trifluoromethyl) benzamide] and `NC1(C(=O)N2CCC(CNC(=O)c3cc(C(F)(F)F)cc(C(F)(F)F)c3)CC2)CCCCC1` [Compound 86, N-((1-(1-aminocyclohexanecarbonyl)piperidin-4-yl)methyl)-3,5-bis(trifluoromethyl) benzamide] cannot be ordered by pIC50: under 5.00 for the first, under 5.00 for the second.

Compared with `CCC(O)(C(=O)N1CCC(CNC(=O)c2cc(C(F)(F)F)cc(C(F)(F)F)c2)CC1)C(C)(C)C` (centres unmarked) [Compound 90, N-((1-(2-ethyl-2-hydroxy-3,3-dimethylbutanoyl)piperidin-4-yl)methyl)-3,5-bis(trifluoromethyl)benzamide], `CC(C)(O)C(=O)N1CCC(CC(=O)Nc2cc(C(F)(F)F)cc(C(F)(F)F)c2)CC1` [Compound 154, N-(3,5-bis(trifluoromethyl)phenyl)-2-(1-(2-hydroxy-2-methylpropanoyl)piperidin-4-yl)acetamide] is 0.20 log units lower in pIC50: 5.37 for the first, 5.17 for the second.

`CC(C)(C)C(O)CN1CCC(CC(=O)Nc2nc3ccccc3[nH]2)CC1` (centres unmarked) [Compound 166, N-(1H-benzo[d]imidazol-2-yl)-2-(1-(2-hydroxy-3,3-dimethylbutyl)piperidin-4-yl)acetamide] and `CC(C)(C)C(O)CN1CCC(CC(=O)NCCc2ccc(F)cc2)CC1` (centres unmarked) [Compound 177, N-(4-fluorophenethyl)-2-(1-(2-hydroxy-3,3-dimethylbuyl)piperidin-4-yl)acetamide] cannot be ordered by pIC50: under 5.00 for the first, under 5.00 for the second.

`CC(C)(C)C(O)CN1CCC(CC(=O)NCc2cccc(OC(F)F)c2)CC1` (centres unmarked) [Compound 175, N-(3-(difluoromethoxy)benzyl)-2-(1-(2-hydroxy-3,3-dimethylbutyl)piperidin-4-yl)acetamide] and `CC(C)(C)C(O)CN1CCC(CC(=O)NCc2ccc3c(c2)CCO3)CC1` (centres unmarked) [Compound 176, N-((2,3-dihydrobenzofuran-5-yl)methyl)-2-(1-(2-hydroxy-3,3-dimethylbutyl)piperidin-4-yl)acetamide] cannot be ordered by pIC50: under 5.00 for the first, under 5.00 for the second.

`NC1(C(=O)N2CCC(CC(=O)Nc3cc(C(F)(F)F)cc(C(F)(F)F)c3)CC2)CC1` [Compound 190, 2-(1-(1-aminocyclopropanecarbonyl)piperidin-4-yl)-N-(3,5-bis(trifluoromethyl)phenyl) acetamide] and `NC1(C(=O)N2CCC(CC(=O)Nc3cc(C(F)(F)F)cc(C(F)(F)F)c3)CC2)CCOCC1` [Compound 194, 2-(1-(4-aminotetrahydro-2H-pyran-4-carbonyl)piperidin-4-yl)-N-(3,5-bis(trifluoromethyl)phenyl)acetamide] cannot be ordered by pIC50: under 5.00 for the first, under 5.00 for the second.

`O=C(CC1CCN(C(=O)[C@H]2CCCN2)CC1)Nc1cc(C(F)(F)F)cc(C(F)(F)F)c1` [Compound 191, (R)-N-(3,5-bis(trifluoromethyl)phenyl)-2-(1-(pyrrolidine-2-carbonyl)piperidin-4-yl)acetamide] and `N#CC1CCN(CC(=O)N2CCC(CNC(=O)c3cc(C(F)(F)F)cc(C(F)(F)F)c3)CC2)CC1` [Compound 259, N-((1-(2-(4-cyanopiperidin-1-yl)acetyl)piperidin-4-yl)methyl)-3,5-bis(trifluoromethyl)benzamide] cannot be ordered by pIC50: under 5.00 for the first, under 5.00 for the second.

`CC(C)(C)OC(=O)NC(CN1CCC(CC(=O)NCCc2c[nH]c3ccccc23)CC1)C(C)(C)C` (centres unmarked) [Compound 197, tert-butyl 1-(4-(2-(2-(1H-indol-3-yl)ethylamino)-2-oxoethyl)piperidin-1-yl)-3,3-dimethylbutan-2-ylcarbamate] and `CC(C)S(=O)(=O)NC(CN1CCC(CC(=O)NCCc2c[nH]c3ccc(F)cc23)CC1)C(C)(C)C` (centres unmarked) [Compound 206, 2-(1-(3,3-dimethyl-2-(1-methylethylsulfonamido)butyl)piperidin-4-yl)-N-(2-(5-fluoro-1H-3-yl)ethyl)acetamide] cannot be ordered by pIC50: under 5.00 for the first, under 5.00 for the second.

`CC(C)(C)C(N)CN1CCC(CC(=O)NCc2cc(Cl)cc(Cl)c2)CC1` (centres unmarked) [Compound 201, 2-(1-(2-amino-3,3-dimethylbutyl)piperidin-4-yl)-N-(3,5-dichlorobenzyl) acetamide] and `CC(C)(C)C(CN1CCC(CC(=O)NCc2cc(Cl)cc(Cl)c2)CC1)NS(C)(=O)=O` (centres unmarked) [Compound 207, N-(3,5-dichhlorobenzyl)-2-(1-(3,3-dimethyl-2-(methylsulfonamido)butyl)piperidin-4-yl)acetamide] cannot be ordered by pIC50: under 5.00 for the first, under 5.00 for the second.

First: CCS(=O)(=O)NC(CN1CCC(CC(=O)NCc2cc(Cl)cc(Cl)c2)CC1)C(C)(C)C (centres unmarked) [Compound 208, N-(3,5-dichlorobenzyl)-2-(1-(2-(ethylsulfonamido)-3,3-dimethylbutyl)piperidin-4-yl)acetamide]
Second: CC(C)(C)C(CN1CCC(CC(=O)NCc2cc(Cl)cc(Cl)c2)CC1)NS(=O)(=O)C1CC1 (centres unmarked) [Compound 209, 2-(1-(2-(cyclopropanesulfonamido)-3,3-dimethylbutyl)piperidin-4-yl)-N-(3,5-dichlorobenzyl)acetamide]
The pIC50 of the first is lower: under 5.00 for the first, 5.07 for the second. The second is the more potent here.

First: CC(C)(C)C(N)CN1CCC(CC(=O)NC(c2cccc(F)c2)c2cccc(F)c2)CC1 (centres unmarked) [Compound 217, 2-(1-(2-amino-3,3-dimethylbutyl)piperidin-4-yl)-N-(bis(3-fluorophenyl)methyl)acetamide]
Second: CC(C)(C)C(CN1CCC(CC(=O)NC(c2cccc(F)c2)c2cccc(F)c2)CC1)NS(C)(=O)=O (centres unmarked) [Compound 219, N-(bis(3-fluorophenyl)methyl)-2-(1-(3,3-dimethyl-2-(methylsulfonamido)butyl)piperidin-4-yl)acetamide]
The pIC50 of the first is higher: 5.24 for the first, under 5.00 for the second. The first is the more potent here.

`CCS(=O)(=O)NC(CN1CCC(CC(=O)NC(c2cccc(F)c2)c2cccc(F)c2)CC1)C(C)(C)C` (centres unmarked) [Compound 220, N-(bis(3-fluorophenyl)methyl)-2-(1-(2-(ethylsulfonamido)-3,3-dimethylbutyl)piperidin-4-yl)acetamide] and `COC(=O)NC(CN1CCC(CC(=O)NCc2cc(Cl)cc(Cl)c2)CC1)C(C)(C)C` (centres unmarked) [Compound 223, methyl 1-(4-(2-(3,5-dichlorobenzyl-amino)-2-oxoethyl)piperidin-1-yl)-3,3-dimethylbutan-2-ylcarbamate] are within 0.2 log units of each other in pIC50: 5.16 for the first, 5.09 for the second.

Going from `O=C(NCC1CCN(C(=O)CNCCCN2CCOCC2)CC1)c1cc(F)cc(C(F)(F)F)c1` [Compound 270, 3-fluoro-N-((1-(2-(3-morpholinopropylamino)acetyl)piperidin-4-yl)methyl)-5-(trifluoromethyl)benzamide] to `O=C(NCC1CCN(CCNS(=O)(=O)C2CC2)CC1)c1cc(F)cc(Cl)c1` [Compound 390, 3-chloro-N-((1-(2-(cyclopropanesulfonamido)ethyl)piperidin-4-yl)methyl)-5-fluoro-benzamide], the pIC50 rises from under 5.00 to over 6.52. The second is the more potent here.
